Test results reported in patent US10226413B2, “Solution solubilization composition of insoluble material and method for solubilizing insoluble material using same” (Damy Chemical Co., Ltd., priority 2013, dated 2019).

Protocol: The turbidity of each lotion was measured using a spectrophotometer at 620 nm. A high turbidity of a liquid indicates cloudiness of the liquid and a low turbidity of a liquid indicates high transparency of the liquid. The turbidity (optical density) of the lotion was measured in the range of 0.01-1.0.
The amount of light passing through each solution was measured. The transmittance (T, %) of the solution for light was calculated as follows. First, the measured absorbance was substituted into -log t=A (absorbance, O.D). Since t is always not greater than 1, the transmittance (T) was calculated and expressed in percentage by T (%)=t×100. The transmittance is between 1 and 100%. The higher the transmittance, the higher the transparency. The transmittance of purified water was defined as 100%.

| SMILES | solubilization in water by the composition (turbidity and transmittance) |
| --- | --- |
| COC1=C(OC)C(=O)C(C/C=C(\C)CC/C=C(\C)CC/C=C(\C)CC/C=C(\C)CC/C=C(\C)CC/C=C(\C)CC/C=C(\C)CC/C=C(\C)CC/C=C(\C)CCC=C(C)C)=C(C)C1=O [ubiquinone] | can solubilize |
| C[C@@H]1O[C@@H](OC[C@H]2O[C@@H](Oc3c(-c4ccc(O)c(O)c4)oc4cc(O)cc(O)c4c3=O)[C@H](O)[C@@H](O)[C@@H]2O)[C@H](O)[C@H](O)[C@H]1O [rutin] | can solubilize |
